According to patent US20250120397A1, “PEST CONTROL METHOD” (National Chung Hsing University, priority 2023, published 2025):

Assays:
Format in all cases: in vivo
[1] = system: Anoplolepis longipes (long-legged ant); assay: 24-hour fumigation in sealed 1-L container, fatality rate
Excerpt: (§1) Sitophilus oryzae (rice weevil), Tetranychus urticae (two-spotted spider mite), Lasioderma serricorne (cigarette beetle), Blattella germanica (German cockroach), Anoplolepis longipes (long-legged ant), and Solenopsis invicta (red imported fire ant) were used as the test objects of this experiment and were each put into several 1-L containers. A carrier containing an isododecane (or 2,2,4,6,6-pentamethylheptane to be exact) at each of a plurality of predetermined concentrations (i.e., 2.5, 5, 10, 20, 30, and 40 mg) was then put into one of the 1-L containers of each test object, before the containers were sealed to start a 24-hour fumigation process. After that, the containers were aerated, and the numbers of deaths of each kind of pests were counted.
(§2) Sitophilus oryzae, Tetranychus urticae, Lasioderma serricorne, Blattella germanica, Anoplolepis longipes, and Solenopsis invicta were each put into several 1-L containers. A carrier containing each of n-dodecane, n-decane, 2-methylnonane (an isodecane), and 2,2,4,6,6-pentamethylheptane (an isododecane) at a concentration of 30 mg was then put into one of the 1-L containers of each test object, before the containers were sealed to start a 24-hour fumigation process. After that, the containers were aerated, and the numbers of deaths of each kind of pests were counted.

[2] = system: Tetranychus urticae (two-spotted spider mite); assay: as above
Excerpt: as §1, §2

[3] = system: Sitophilus oryzae (rice weevil); assay: as above
Excerpt: as §1, §2

[4] = system: Solenopsis invicta (red imported fire ant); assay: as above
Excerpt: as §1, §2

[5] = system: Blattella germanica (German cockroach); assay: as above
Excerpt: as §1, §2

[6] = system: Lasioderma serricorne (cigarette beetle); assay: as above
Excerpt: as §1, §2

mosquito larvae = assay: Mosquito larvae killing in 100 mL deionized water, 24 hours, fatality rate; settings: uncovered
Protocol: Artificially raised non-pathogenic mosquito larvae were divided into a plurality of groups each including 30 larvae. Each group of larvae was put into a 1-L container together with 100 mL of deionized water. Then, a reagent containing a spreading agent for agricultural use as well as an isododecane and an isohexadecane in a ratio of 4:1 was added into the deionized water in each container at one of a plurality of predetermined doses and thoroughly mixed. The containers were left uncovered. After 24 hours, the numbers of deaths of the mosquito larvae were counted.

[7] = Table 2: compound at 30 mg in 1-L container

`CC(CC(C)(C)C)CC(C)(C)C` [2,2,4,6,6-pentamethylheptane] was tested, and the “Fatality rate (%) Anoplolepis longipes” value [1, 7] was 100%, the “Fatality rate (%) Anoplolepis longipes” value ([1]; dose 2.5 mg in 1-L container) was 8% and the “Fatality rate (%) Anoplolepis longipes” value ([1]; dose 5 mg in 1-L container) was 14%. For the same molecule, the “Fatality rate (%) Anoplolepis longipes” value ([1]; dose 10 mg in 1-L container) was 32%, the “Fatality rate (%) Anoplolepis longipes” value ([1]; dose 20 mg in 1-L container) was 80% and the “Fatality rate (%) Anoplolepis longipes” value ([1]; dose 30 mg in 1-L container) was 100%. For the same molecule, the “Fatality rate (%) Anoplolepis longipes” value ([1]; dose 40 mg in 1-L container) was 100%, the “Fatality rate (%) Tetranychus urticae” value [2, 7] was 100% and the “Fatality rate (%) Tetranychus urticae” value ([2]; dose 2.5 mg in 1-L container) was 45%. The “Fatality rate (%) Tetranychus urticae” value ([2]; dose 5 mg in 1-L container) was 72%, the “Fatality rate (%) Tetranychus urticae” value ([2]; dose 10 mg in 1-L container) was 100% and the “Fatality rate (%) Tetranychus urticae” value ([2]; dose 20 mg in 1-L container) was 100%. For the same molecule, the “Fatality rate (%) Tetranychus urticae” value ([2]; dose 30 mg in 1-L container) was 100%, the “Fatality rate (%) Tetranychus urticae” value ([2]; dose 40 mg in 1-L container) was 100% and the “Fatality rate (%) Sitophilus oryzae” value [3, 7] was 100%. For the same molecule, the “Fatality rate (%) Sitophilus oryzae” value ([3]; dose 2.5 mg in 1-L container) was 0%, the “Fatality rate (%) Sitophilus oryzae” value ([3]; dose 5 mg in 1-L container) was 7% and the “Fatality rate (%) Sitophilus oryzae” value ([3]; dose 10 mg in 1-L container) was 22%. The “Fatality rate (%) Sitophilus oryzae” value ([3]; dose 20 mg in 1-L container) was 30%, the “Fatality rate (%) Sitophilus oryzae” value ([3]; dose 30 mg in 1-L container) was 100% and the “Fatality rate (%) Sitophilus oryzae” value ([3]; dose 40 mg in 1-L container) was 100%. The “Fatality rate (%) Solenopsis invicta” value [4, 7] was 100%, the “Fatality rate (%) Solenopsis invicta” value ([4]; dose 2.5 mg in 1-L container) was 32% and the “Fatality rate (%) Solenopsis invicta” value ([4]; dose 5 mg in 1-L container) was 55%. For the same molecule, the “Fatality rate (%) Solenopsis invicta” value ([4]; dose 10 mg in 1-L container) was 100%, the “Fatality rate (%) Solenopsis invicta” value ([4]; dose 20 mg in 1-L container) was 100% and the “Fatality rate (%) Solenopsis invicta” value ([4]; dose 30 mg in 1-L container) was 100%. The “Fatality rate (%) Solenopsis invicta” value ([4]; dose 40 mg in 1-L container) was 100%, the “Fatality rate (%) Blattella germanica” value [5, 7] was 100% and the “Fatality rate (%) Blattella germanica” value ([5]; dose 2.5 mg in 1-L container) was 7%. The “Fatality rate (%) Blattella germanica” value ([5]; dose 5 mg in 1-L container) was 18%, the “Fatality rate (%) Blattella germanica” value ([5]; dose 10 mg in 1-L container) was 38% and the “Fatality rate (%) Blattella germanica” value ([5]; dose 20 mg in 1-L container) was 88.89%. For the same molecule, the “Fatality rate (%) Blattella germanica” value ([5]; dose 30 mg in 1-L container) was 100%, the “Fatality rate (%) Blattella germanica” value ([5]; dose 40 mg in 1-L container) was 100% and the “Fatality rate (%) Lasioderma serricorne” value [6, 7] was 100%. The “Fatality rate (%) Lasioderma serricorne” value ([6]; dose 2.5 mg in 1-L container) was 5%, the “Fatality rate (%) Lasioderma serricorne” value ([6]; dose 5 mg in 1-L container) was 18% and the “Fatality rate (%) Lasioderma serricorne” value ([6]; dose 10 mg in 1-L container) was 25%. The “Fatality rate (%) Lasioderma serricorne” value ([6]; dose 20 mg in 1-L container) was 42.11%, the “Fatality rate (%) Lasioderma serricorne” value ([6]; dose 30 mg in 1-L container) was 100% and the “Fatality rate (%) Lasioderma serricorne” value ([6]; dose 40 mg in 1-L container) was 100%. The “Fatality rate (%) of mosquito larvae” value (mosquito larvae; dose 2.5 mg in 100 mL deionized water) was 33%, the “Fatality rate (%) of mosquito larvae” value (mosquito larvae; dose 5 mg in 100 mL deionized water) was 50% and the “Fatality rate (%) of mosquito larvae” value (mosquito larvae; dose 10 mg in 100 mL deionized water) was 80%. For the same molecule, the “Fatality rate (%) of mosquito larvae” value (mosquito larvae; dose 20 mg in 100 mL deionized water) was 100% and the “Fatality rate (%) of mosquito larvae” value (mosquito larvae; dose 40 mg in 100 mL deionized water) was 100%.

For `CCCCCCCC(C)C` [2-methylnonane], the “Fatality rate (%) Anoplolepis longipes” value [1, 7] was 90%, the “Fatality rate (%) Tetranychus urticae” value [2, 7] was 100% and the “Fatality rate (%) Sitophilus oryzae” value [3, 7] was 100%. The “Fatality rate (%) Solenopsis invicta” value [4, 7] was 100%, the “Fatality rate (%) Blattella germanica” value [5, 7] was 100% and the “Fatality rate (%) Lasioderma serricorne” value [6, 7] was 100%.

With `CCCCCCCCCC` [n-decane] the “Fatality rate (%) Anoplolepis longipes” value [1, 7] was 75%, the “Fatality rate (%) Tetranychus urticae” value [2, 7] was 100% and the “Fatality rate (%) Sitophilus oryzae” value [3, 7] was 100%. For the same molecule, the “Fatality rate (%) Solenopsis invicta” value [4, 7] was 100%, the “Fatality rate (%) Blattella germanica” value [5, 7] was 100% and the “Fatality rate (%) Lasioderma serricorne” value [6, 7] was 100%.

`CCCCCCCCCCCC` [n-dodecane] was tested, and the “Fatality rate (%) Anoplolepis longipes” value [1, 7] was 25%, the “Fatality rate (%) Tetranychus urticae” value [2, 7] was 95% and the “Fatality rate (%) Sitophilus oryzae” value [3, 7] was 50%. For the same molecule, the “Fatality rate (%) Solenopsis invicta” value [4, 7] was 5%, the “Fatality rate (%) Blattella germanica” value [5, 7] was 22.22% and the “Fatality rate (%) Lasioderma serricorne” value [6, 7] was 100%.
